Consider one molecule from ChEMBL document CHEMBL4152349, “A Fragment-Derived Clinical Candidate for Antagonism of X-Linked and Cellular Inhibitor of Apoptosis Proteins: 1-(6-[(4-Fluorophenyl)methyl]-5-(hydroxymethyl)-3,3-dimethyl-1 H,2 H,3 H-pyrrolo[3,2- b]pyridin-1-yl)-2-[(2 R,5 …” (J Med Chem, 2018).

A short description of data set [1]: Oral bioavailability in Balb/c mouse at 5 mg/kg by UHPLC and ESI mass spectrometry. As to conditions: in vivo. The class given is ADME, organism-based.
The nature of data set [2]: Chromatographic hydrophobicity index, log D of the compound at pH 7.4 by HPLC method. The format is physicochemical. The following applies: buffer.
Data set [3] is described as follows: Oral bioavailability in Balb/c mouse at 10 mg/kg by UHPLC and ESI mass spectrometry. The class given is ADME, organism-based. The following applies: in vivo.
The subject of the next data set is MDA-MB-231. The experiment in a line: cells. As to conditions: Homo sapiens, MDA-MB-231, 72 h.
A short description of a further data set: in vivo. As to conditions: cynomolgus monkey, po, 5 mg/kg.
The target of a further data set is hERG (KCNH2) (Homo sapiens, UniProt Q12809). Kind of data set: in vitro. The following applies: CHO-K1 cells expressing human ERG.
For another data set, the target named is CYP3A4 (Homo sapiens, UniProt P08684). The experiment in a line: in vitro. As to conditions: human CYP3A4 supersomes.

As usually defined, the bioavailability is dose-corrected exposure relative to a reference, in per cent. A higher bioavailability goes with much systemic uptake. For orientation: chromatographic logD means lipophilicity estimated from chromatographic retention. For orientation: IC50 means the point on the concentration scale where inhibition reaches its midpoint. Read a high IC50 as weaker potency in that assay. A word on the inhibition: it is the drop in the measured response relative to a control, in per cent. High values mean a response far below the control, low ones a response near the control. As a reminder, the half-life is how long it takes for the measured level to halve. A higher half-life goes with slow loss.

Chain of hERG (KCNH2) (Q12809 whole entry): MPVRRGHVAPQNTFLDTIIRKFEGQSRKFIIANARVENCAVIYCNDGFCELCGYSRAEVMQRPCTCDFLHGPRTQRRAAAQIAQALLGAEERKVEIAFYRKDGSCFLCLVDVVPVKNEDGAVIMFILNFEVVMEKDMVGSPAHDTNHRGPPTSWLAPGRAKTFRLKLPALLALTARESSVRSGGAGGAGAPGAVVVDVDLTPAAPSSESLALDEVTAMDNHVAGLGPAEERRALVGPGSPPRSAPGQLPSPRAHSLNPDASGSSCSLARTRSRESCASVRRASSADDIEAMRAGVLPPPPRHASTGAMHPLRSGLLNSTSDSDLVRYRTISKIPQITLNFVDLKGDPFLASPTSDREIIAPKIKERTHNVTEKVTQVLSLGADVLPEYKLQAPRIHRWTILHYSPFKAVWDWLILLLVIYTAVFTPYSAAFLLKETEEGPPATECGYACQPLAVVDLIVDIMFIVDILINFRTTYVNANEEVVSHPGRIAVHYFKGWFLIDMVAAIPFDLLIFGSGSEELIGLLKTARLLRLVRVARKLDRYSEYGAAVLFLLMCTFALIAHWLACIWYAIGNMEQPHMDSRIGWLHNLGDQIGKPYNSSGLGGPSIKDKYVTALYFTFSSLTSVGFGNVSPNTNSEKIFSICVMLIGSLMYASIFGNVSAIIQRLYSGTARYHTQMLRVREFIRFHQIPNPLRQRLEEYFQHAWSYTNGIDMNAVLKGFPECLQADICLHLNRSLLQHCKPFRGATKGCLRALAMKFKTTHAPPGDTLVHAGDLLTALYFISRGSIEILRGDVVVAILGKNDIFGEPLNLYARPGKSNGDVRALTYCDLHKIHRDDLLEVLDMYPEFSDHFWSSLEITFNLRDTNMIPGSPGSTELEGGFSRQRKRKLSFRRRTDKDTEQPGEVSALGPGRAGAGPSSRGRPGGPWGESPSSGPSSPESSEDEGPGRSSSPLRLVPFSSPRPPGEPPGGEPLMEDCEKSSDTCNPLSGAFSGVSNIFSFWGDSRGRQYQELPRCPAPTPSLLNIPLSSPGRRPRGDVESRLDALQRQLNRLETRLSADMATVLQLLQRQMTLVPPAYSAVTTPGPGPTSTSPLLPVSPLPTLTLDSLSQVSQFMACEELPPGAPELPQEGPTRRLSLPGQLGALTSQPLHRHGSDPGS
Chain of CYP3A4 (P08684 whole entry): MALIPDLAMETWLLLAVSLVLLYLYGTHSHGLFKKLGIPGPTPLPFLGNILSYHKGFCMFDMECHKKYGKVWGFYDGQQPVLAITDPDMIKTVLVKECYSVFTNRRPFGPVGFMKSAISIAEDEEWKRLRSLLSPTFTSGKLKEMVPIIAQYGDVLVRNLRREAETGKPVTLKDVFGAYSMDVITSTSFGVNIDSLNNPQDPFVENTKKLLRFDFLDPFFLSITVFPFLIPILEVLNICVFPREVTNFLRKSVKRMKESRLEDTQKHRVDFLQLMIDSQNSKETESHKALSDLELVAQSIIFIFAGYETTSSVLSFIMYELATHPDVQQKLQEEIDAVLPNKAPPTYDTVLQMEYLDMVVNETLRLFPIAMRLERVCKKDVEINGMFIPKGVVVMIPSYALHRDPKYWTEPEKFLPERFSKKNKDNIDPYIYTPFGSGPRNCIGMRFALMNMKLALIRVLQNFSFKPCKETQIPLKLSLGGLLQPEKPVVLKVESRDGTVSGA

For `C[C@@H]1CN(CC(=O)N2CC(C)(C)c3nnc(Cc4ccc(F)cc4F)cc32)[C@@H](CN2Cc3ccccc3C2=O)CN1`, the bioavailability in data set [1] was determined as 3%; in data set [3] it was 2%; in the data set “in vivo”, 18%. In addition, the chromatographic logD in data set [2] stood at 2.4. Moreover, in the data set on MDA-MB-231, the midpoint of inhibition, the IC50, lay at 5.4 nM. Besides, the inhibition at 10 min, 30 µM against hERG (KCNH2) amounted to 27%. The half-life at 40 min, 1 µM at CYP3A4 was over 1.17 h.
